US7420001B2 (Wyeth, priority 2003, dated 2008)
Like-named read-outs stand apart in the source and are kept apart here.

Experiments:
[1] = target: T1, MMP-2 (Homo sapiens, UniProt P08253); assay: In-vitro fluorescence assay of MMP-2 activity; type: biochemical; conditions: recombinant human MMP-2; read-out: MMP-2 IC50
T1 construct: purchased Oncogene Research Products (Calbiochem) PF023
T1 sequence (P08253 110-660): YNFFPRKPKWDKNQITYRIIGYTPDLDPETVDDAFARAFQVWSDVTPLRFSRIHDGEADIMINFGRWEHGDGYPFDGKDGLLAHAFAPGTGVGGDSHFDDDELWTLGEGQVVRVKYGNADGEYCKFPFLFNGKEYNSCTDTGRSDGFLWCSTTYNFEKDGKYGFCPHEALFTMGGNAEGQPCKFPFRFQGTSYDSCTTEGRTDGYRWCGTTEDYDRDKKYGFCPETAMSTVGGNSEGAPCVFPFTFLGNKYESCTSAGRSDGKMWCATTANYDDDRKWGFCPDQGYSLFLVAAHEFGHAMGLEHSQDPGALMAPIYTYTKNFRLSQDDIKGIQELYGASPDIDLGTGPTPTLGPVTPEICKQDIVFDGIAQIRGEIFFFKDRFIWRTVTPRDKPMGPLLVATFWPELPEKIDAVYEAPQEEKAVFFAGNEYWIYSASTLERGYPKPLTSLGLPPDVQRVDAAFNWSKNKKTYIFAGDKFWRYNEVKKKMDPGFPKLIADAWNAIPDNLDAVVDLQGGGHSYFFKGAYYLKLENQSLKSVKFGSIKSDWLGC

[2] = target: T2, MMP-12 (Homo sapiens, UniProt P39900); assay: In vitro fluorescence assay of MMP-12 activity; type: biochemical; conditions: recombinant human MMP-12
T2 construct: made in house
T2 sequence (P39900 106-280 limits assumed): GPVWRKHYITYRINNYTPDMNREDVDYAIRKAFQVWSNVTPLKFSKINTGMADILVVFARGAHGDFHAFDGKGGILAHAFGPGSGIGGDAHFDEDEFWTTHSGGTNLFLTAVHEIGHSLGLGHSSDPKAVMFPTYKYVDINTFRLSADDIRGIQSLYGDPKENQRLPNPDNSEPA

[3] = target: T3, MMP-13 (Homo sapiens, UniProt P45452); assay: In-vitro fluorescence assay of MMP-13 activity; type: biochemical
T3 construct: made in house

[4] = target: T4, MMP-14 (Homo sapiens, UniProt P50281); assay: In-vitro fluorescence assay of MMP-14 activity; type: biochemical
T4 construct: 20 kDa; purchased Chemicon International, Inc. CC 1041

[5] = target: T5, MMP-1 (Homo sapiens, UniProt P03956)
T5 sequence (P03956 100-269 limits assumed): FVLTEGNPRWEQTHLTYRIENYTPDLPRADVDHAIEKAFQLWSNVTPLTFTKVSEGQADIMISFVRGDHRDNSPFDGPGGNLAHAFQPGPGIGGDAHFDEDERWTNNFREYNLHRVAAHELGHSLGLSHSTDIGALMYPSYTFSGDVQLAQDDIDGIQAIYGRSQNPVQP

[6] = recombinant human catalytic domain of MMP-13, read-out: MMP-13 IC50
[7] = recombinant human catalytic domain of MMP-14

IC50 [1] | IC50 [2] | IC50 [3, 6] | IC50 [5] | IC50 [4, 7] | SMILES | IC50 [4] | IC50 ([5]; read-out: MMP-1 IC50, recombinant human catalytic domain of MMP-1) | IC50 ([3]; MMP-13 IC50, recombinant human catalytic domain of MMP-13)
15000 nM | 175 nM | 9.5 nM |  |  | CC#Cc1cccc2oc(C(=O)Nc3ccc(-c4ccc(S(=O)(=O)N[C@H](C(=O)O)C(C)C)cc4)cc3)c(C)c12 [Example 21, L-3-Methyl-2-{4′-[(3-methyl-4-prop-1-ynyl-benzofuran-2-carbonyl)-amino]-biphenyl-4-sulfonylamino}-butyric acid] |  |  | 
1940 nM | 137 nM | 12 nM |  |  | COCC#Cc1cccc2oc(C(=O)Nc3ccc(-c4ccc(S(=O)(=O)N[C@H](C(=O)O)C(C)C)cc4)cc3)c(C)c12 [Example 22, L-2-(4′-{[4-(3-Methoxy-prop-1-ynyl)-3-methyl-benzofuran-2-carbonyl]-amino}-biphenyl-4-sulfonylamino)-3-methyl-butyric acid] |  |  | 
1450 nM | 155 nM | 16 nM |  |  | Cc1c(C(=O)Nc2ccc(-c3ccc(S(=O)(=O)N[C@H](C(=O)O)C(C)C)cc3)cc2)oc2cccc(C#CCN(C)C)c12 [Example 31, L-2-(4′-{[4-(3-Dimethylamino-prop-1-ynyl)-3-methyl-benzofuran-2-carbonyl]-amino}-biphenyl-4-sulfonylamino)-3-methyl-butyric acid] |  |  | 
2250 nM | 126 nM | 11 nM |  |  | Cc1c(C(=O)Nc2ccc(-c3ccc(S(=O)(=O)N[C@H](C(=O)O)C(C)C)cc3)cc2)oc2cccc(NS(C)(=O)=O)c12 [Example 36, L-2-{4′-[(4-Methanesulfonylamino-3-methyl-benzofuran-2-carbonyl)-amino]-biphenyl-4-sulfonylamino}-3-methyl-butyric acid] |  |  | 
1000 nM | 187 nM | 14 nM | 20.2 µM | 24.8 µM | Cc1c(C(=O)Nc2ccc(-c3ccc(S(=O)(=O)N[C@H](C(=O)O)C(C)C)cc3)cc2)oc2cccc(C(N)=O)c12 [Example 46, L-2-{4′-[(4-Carbamoyl-3-methyl-benzofuran-2-carbonyl)-amino]-biphenyl-4-sulfonylamino}-3-methyl-butyric acid] |  |  | 
4290 nM | 438 nM | 32 nM |  |  | Cc1c(C(=O)Nc2ccc(-c3ccc(S(=O)(=O)N[C@H](C(=O)O)C(C)C)cc3)cc2)oc2cccc(NC(=O)C3CC3)c12 [Example 47, L-2-(4′-{[4-(Cyclopropanecarbonyl-amino)-3-methyl-benzofuran-2-carbonyl]-amino}-biphenyl-4-sulfonylamino)-3-methyl-butyric acid] |  |  | 
3810 nM | 226 nM | 25 nM |  |  | CC(=O)Nc1cccc2oc(C(=O)Nc3ccc(-c4ccc(S(=O)(=O)N[C@H](C(=O)O)C(C)C)cc4)cc3)c(C)c12 [Example 48, L-2-{4′-[(4-Acetylamino-3-methyl-benzofuran-2-carbonyl)-amino]-biphenyl-4-sulfonylamino}-3-methyl-butyric acid] |  |  | 
7110 nM | 187 nM | 11 nM |  |  | Cc1c(C(=O)Nc2ccc(-c3ccc(S(=O)(=O)N[C@H](C(=O)O)C(C)C)cc3)cc2)oc2cccc(OCC3CC3)c12 [Example 51, L-2-{4′-[(4-Cyclopropylmethoxy-3-methyl-benzofuran-2-carbonyl)-amino]-biphenyl-4-sulfonylamino}-3-methyl-butyric acid] |  |  | 
4350 nM | 51 nM | 43 nM |  |  | Cc1nn(C)c2sc(C(=O)Nc3ccc(-c4ccc(S(=O)(=O)N[C@H](C(=O)O)C(C)C)cc4)cc3)cc12 [Example 80, (S)-2-{4′-[(1,3-Dimethyl-1H-thieno[2,3-c]pyrazole-5-carbonyl)-amino]-biphenyl-4-sulfonylamino}-3-methyl-butyric acid] |  |  | 
3590 nM | 121 nM | 7.4 nM |  |  | CCOc1cccc2oc(C(=O)Nc3ccc(-c4ccc(S(=O)(=O)N[C@H](C(=O)O)C(C)C)cc4)cc3)c(C)c12 [Example 106, (S)-2-{4′-[(4-ethoxy-3-methyl-benzofuran-2-carbonyl)-amino]-biphenyl-4-sulfonylamino}-3-methyl-butyric acid] |  |  | 
1340 nM | 84 nM | 4 nM | 22 µM | 7.31 µM | Cc1c(C(=O)Nc2ccc(-c3ccc(S(=O)(=O)N[C@H](C(=O)O)C(C)C)cc3)cc2)oc2cccc(-c3cccnc3)c12 [Example 111, (S)-3-methyl-2-{4′-[(3-methyl-4-pyridin-3-yl-benzofuran-2-carbonyl)-amino]-biphenyl-4-sulfonylamino}-butyric acid] |  |  | 
116 nM | 1.9 nM | 0.8 nM |  |  | Cc1ccc2oc(C(=O)Nc3ccc(-c4ccc(S(=O)(=O)N[C@H](C(=O)O)C(C)C)cc4)cc3)nc2c1 [Example 129, (S)-3-Methyl-2-{4′-[(5-methyl-benzooxazole-2-carbonyl)-amino]-biphenyl-4-sulfonylamino}-butyric acid] |  |  | 
 | 11 nM | 0.4 nM | 70 µM | 35 µM | CC(C)[C@H](NS(=O)(=O)c1ccc(-c2ccc(NC(=O)c3nc4ccccc4s3)cc2)cc1)C(=O)O [Example 151, L-2-{4′-[(Benzothiazole-2-carbonyl)-amino]-biphenyl-4-sulfonylamino}-3-methyl-butyric acid] |  |  | 
 | 1.1 nM | 0.7 nM |  |  | CC(C)[C@@H](NS(=O)(=O)c1ccc(-c2ccc(NC(=O)c3nc4ccccc4s3)cc2)cc1)C(=O)O [Example 152, D-2-{4′-[(Benzothiazole-2-carbonyl)-amino]-biphenyl-4-sulfonylamino}-3-methyl-butyric acid] |  |  | 
9300 nM | 97 nM | 12 nM | 90 µM | 11 µM | CC(C)[C@H](NS(=O)(=O)c1ccc(-c2ccc(NC(=O)c3cc4c(-c5ccccc5)nn(C)c4s3)cc2)cc1)C(=O)O [Example 167, (S)-3-Methyl-2-{4′-[(1-methyl-3-phenyl-1H-thieno[2,3-c]pyrazole-5-carbonyl)-amino]-biphenyl-4-sulfonylamino}-butyric acid] |  |  | 
61 nM |  | 25 nM | 7.4 µM | 6.13 µM | CC(C)[C@H](NS(=O)(=O)c1ccc(-c2ccc(NC(=O)c3cccs3)cc2)cc1)C(=O)O [Example 174, (S)-3-Methyl-2-{4′-[(thiophene-2-carbonyl)-amino]-biphenyl-4-sulfonylamino}-butyric acid] |  |  | 
5.7 nM |  | 11 nM | 3.09 µM | 2.91 µM | CC(C)[C@H](NS(=O)(=O)c1ccc(-c2ccc(NC(=O)c3ccco3)cc2)cc1)C(=O)O [Example 175, (S)-2-{4′-[(Furan-2-carbonyl)-amino]-biphenyl-4-sulfonylamino}-3-methyl-butyric acid] |  |  | 

SMILES | IC50 [1] | IC50 [2] | IC50 [3, 6] | IC50 [5] | IC50 [4, 7] | IC50 [4] | IC50 ([5]; read-out: MMP-1 IC50, recombinant human catalytic domain of MMP-1) | IC50 ([3]; MMP-13 IC50, recombinant human catalytic domain of MMP-13)
Cc1c(C(=O)Nc2ccc(-c3ccc(S(=O)(=O)N[C@H](C(=O)O)C(C)C)cc3)cc2)oc2cccc(C#N)c12 [Example 20, L-2-{4′-[(4-Cyano-3-methyl-benzofuran-2-carbonyl)-amino]-biphenyl-4-sulfonylamino}-3-methyl-butyric acid] | 581 nM | 33 nM | 3.7 nM | 24 µM |  | 5.45 µM |  | 
COc1cccc2oc(C(=O)Nc3ccc(-c4ccc(S(=O)(=O)N[C@H](C(=O)O)C(C)C)cc4)cc3)c(C)c12 [Example 105, (S)-2-{4′-[(4-Methoxy-3-methyl-benzofuran-2-carbonyl)-amino]-biphenyl-4-sulfonylamino}-3-methyl-butyric acid] | 1050 nM | 60 nM | 9.5 nM |  |  |  |  | 
COc1c(Cl)ccc2oc(C(=O)Nc3ccc(-c4ccc(S(=O)(=O)N[C@H](C(=O)O)C(C)C)cc4)cc3)c(C)c12 [Example 116, (S)-2-{4′-[(5-Chloro-4-methoxy-3-methyl-benzofuran-2-carbonyl)-amino]-biphenyl-4-sulfonylamino}-3-methyl-butyric acid] | 1490 nM | 50 nM | 1.9 nM |  | 12.4 µM |  | 34.1 µM | 
Cc1c(C(=O)Nc2ccc(-c3ccc(S(=O)(=O)N[C@H](C(=O)O)C(C)C)cc3)cc2)oc2cccc(Oc3ccccc3)c12 [Example 155, L-3-Methyl-2-{4′-[(3-methyl-4-phenoxy-benzofuran-2-carbonyl)-amino]-biphenyl-4-sulfonylamino}-butyric acid] | 5000 nM | 508 nM |  | 25 µM | 8 µM |  |  | 19 nM
